Source: patent US20170360795A1, “TREATMENT OF CANCERS USING PI3 KINASE ISOFORM MODULATORS” (INFINITY PHARMACEUTICALS, INC., priority 2013, published 2017)
One block for each molecule: values may come before it.

Tests used:
RPMI-8226 = assay: combination screen with BTK inhibitors, 72 hours ATPLite; format: cell-based; settings: RPMI-8226 (multiple myeloma); combination with Compound 292
Protocol: (§1) The method is described as follows. Cells are thawed from a liquid nitrogen preserved state. Once cells have been expanded and divide at their expected doubling times, screening begins. Cells are seeded in growth media in either black 1536-well or 384-well tissue culture treated plates. […] These Tzero (T0) plates are read using ultra-sensitive luminescence on Envision plate readers (Perkin Elmer). […] All data points are collected via automated processes, quality controlled and analyzed using Zalicus software.
(§2) I ranges from 0% (when T=V) to 100% (when T=0). […] The measure of effect in the experiment can be the inhibition of cellular response relative to the untreated level (vehicle alone). For untreated vehicle and treated levels V and T, a fractional inhibition I=1−T/V is calculated. The inhibition ranges from 0% at the untreated level to 100% when T=0. Inhibition levels are negative for agents that actually increase levels. Other effect measures, such as an activity ratio r=T/V may be more appropriate for some assays. When activity ratios (e.g, fold increase over stimulated control) are being used, the effect can be measured using an induction I=ln(T/V). With this definition, all effect expressions are the same as for inhibition.
(§3) Growth Inhibition (GI) is used as a measure of cell viability. […] A GI reading of 100% represents complete growth inhibition −T72 compound-treated and T0 vehicle signals are matched. […] A GI reading of 200% represents complete death of all cells in the culture well. Compounds reaching an activity plateau of GI 200% are considered cytotoxic. GI is calculated by applying the following test and equation: […]
(§4) Combination analysis data were collected in a 6×6 dose matrix. Synergy is calculated by comparing a combination's response to those of its single compound, against the drug-with-itself dose-additive reference model. Deviations from dose additivity may be assessed visually on an isobologram or numerically with a Combination Index (CI). […] Additive effect is CI=1.0. […] Antagonistic effect is CI>1.0.
(§5) To measure combination effects in excess of Loewe additivity, a scalar measure to characterize the strength of synergistic interaction termed the Synergy Score is devised. The Synergy Score is calculated as: […]
(§6) The fractional inhibition for each component agent and combination point in the matrix is calculated relative to the median of all vehicle-treated control wells. The Synergy Score equation integrates the experimentally-observed activity volume at each point in the matrix in excess of a model surface numerically derived from the activity of the component agents using the Loewe model for additivity. […]

HH = HH (T cell lymphoma); combination with Compound 292
Protocol: as §1, §2, §3, §4, §5
(§7) The fractional inhibition for each component agent and combination point in the matrix is calculated relative to the median of all vehicle-treated control wells. The Synergy Score equation integrates the experimentally-observed activity volume at each point in the matrix in excess of a model surface numerically derived from the activity of the component agents using the Loewe model for additivity. Additional terms in the Synergy Score equation (above) are used to normalize for various dilution factors used for individual agents and to allow for comparison of synergy scores across an entire experiment. The inclusion of positive inhibition gating or an Idata multiplier removes noise near the zero effect level, and biases results for synergistic interactions at that occur at high activity levels.

KARPAS-422 = KARPAS-422 (follicular lymphoma); combination with Compound 292
Protocol: as §1, §2, §3, §4, §5, §7

Jeko-1 = Jeko-1 (mantle cell lymphoma); combination with Compound 292
Protocol: as §1, §2, §3, §4, §5, §7

OPM-2 = OPM-2 (multiple myeloma); combination with Compound 292
Protocol: as §1, §2, §3, §4, §5, §7

NCI-H929 = NCI-H929 (multiple myeloma); combination with Compound 292
Protocol: as §1, §2, §3, §4, §5, §7

GRANTA-519 = GRANTA-519 (mantle cell lymphoma); combination with Compound 292
Protocol: as §1, §2, §3, §4, §5, §7

U-2932 = U-2932 (DLBCL ABC); combination with Compound 292
Protocol: as §1, §2, §3, §4, §5, §7

KARPAS-299 = KARPAS-299 (T cell lymphoma); combination with Compound 292
Protocol: as §1, §2, §3, §4, §5, §7

HBL-1 = HBL-1 (DLBCL ABC); combination with Compound 292
Protocol: as §1, §2, §3, §4, §5, §7

OCI-Ly7 = OCI-Ly7 (DLBCL GCB); combination with Compound 292
Protocol: as §1, §2, §3, §4, §5, §7

OCI-LY3 = settings: OCI-Ly3 (DLBCL ABC); combination with Compound 292
Protocol: as §1, §2, §3, §4, §5, §7

PI3K δ = PI3K δ (Homo sapiens, UniProt O00329); assay: In vitro IC50, PI3K δ (Table 3); format: biochemical; set-up: purchased Upstate
Chain of PI3K δ (O00329 whole entry): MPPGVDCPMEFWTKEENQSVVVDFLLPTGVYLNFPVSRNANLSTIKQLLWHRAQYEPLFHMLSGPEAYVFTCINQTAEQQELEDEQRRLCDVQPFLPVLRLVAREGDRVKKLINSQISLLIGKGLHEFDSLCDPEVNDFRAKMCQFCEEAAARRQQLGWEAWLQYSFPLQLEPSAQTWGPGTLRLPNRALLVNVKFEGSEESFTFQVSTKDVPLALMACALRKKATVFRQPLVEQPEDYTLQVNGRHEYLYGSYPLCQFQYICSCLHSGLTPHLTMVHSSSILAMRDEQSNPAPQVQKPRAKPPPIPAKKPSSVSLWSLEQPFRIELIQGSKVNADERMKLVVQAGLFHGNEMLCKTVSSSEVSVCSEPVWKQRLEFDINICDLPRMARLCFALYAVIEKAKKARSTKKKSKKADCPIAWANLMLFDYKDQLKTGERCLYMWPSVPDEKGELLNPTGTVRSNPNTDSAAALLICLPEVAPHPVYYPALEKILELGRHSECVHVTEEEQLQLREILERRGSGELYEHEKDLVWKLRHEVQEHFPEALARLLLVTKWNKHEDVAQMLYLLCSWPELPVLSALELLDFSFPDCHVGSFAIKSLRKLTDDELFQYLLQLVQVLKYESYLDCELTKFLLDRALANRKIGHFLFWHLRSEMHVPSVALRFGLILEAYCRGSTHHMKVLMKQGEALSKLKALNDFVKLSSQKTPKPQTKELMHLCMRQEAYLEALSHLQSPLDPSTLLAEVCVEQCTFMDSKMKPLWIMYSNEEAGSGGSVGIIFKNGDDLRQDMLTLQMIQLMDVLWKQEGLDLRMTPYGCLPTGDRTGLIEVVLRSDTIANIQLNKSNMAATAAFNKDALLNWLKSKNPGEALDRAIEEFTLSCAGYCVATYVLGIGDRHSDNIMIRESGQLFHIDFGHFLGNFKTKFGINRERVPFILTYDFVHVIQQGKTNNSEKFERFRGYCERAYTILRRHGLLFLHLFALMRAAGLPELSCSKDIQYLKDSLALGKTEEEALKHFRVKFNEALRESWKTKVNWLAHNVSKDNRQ
Chain of PI3K δ (P27986 whole entry partner): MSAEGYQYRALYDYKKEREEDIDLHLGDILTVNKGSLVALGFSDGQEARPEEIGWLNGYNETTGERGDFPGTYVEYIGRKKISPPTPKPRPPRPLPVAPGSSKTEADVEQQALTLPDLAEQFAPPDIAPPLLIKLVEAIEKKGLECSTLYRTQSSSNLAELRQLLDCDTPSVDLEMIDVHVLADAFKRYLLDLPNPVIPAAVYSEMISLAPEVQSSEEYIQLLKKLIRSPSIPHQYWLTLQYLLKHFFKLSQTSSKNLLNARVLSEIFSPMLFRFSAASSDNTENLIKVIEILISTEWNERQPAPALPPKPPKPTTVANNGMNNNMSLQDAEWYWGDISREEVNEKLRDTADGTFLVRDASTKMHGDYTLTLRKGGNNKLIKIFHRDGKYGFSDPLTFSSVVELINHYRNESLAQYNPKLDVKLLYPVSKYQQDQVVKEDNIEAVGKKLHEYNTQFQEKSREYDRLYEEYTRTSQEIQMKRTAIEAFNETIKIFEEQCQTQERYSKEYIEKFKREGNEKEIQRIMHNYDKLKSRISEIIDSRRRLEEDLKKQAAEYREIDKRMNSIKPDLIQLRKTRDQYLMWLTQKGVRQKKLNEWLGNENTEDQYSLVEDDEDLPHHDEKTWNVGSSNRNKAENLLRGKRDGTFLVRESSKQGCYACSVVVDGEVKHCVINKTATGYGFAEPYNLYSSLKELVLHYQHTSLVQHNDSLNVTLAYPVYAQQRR
Source text: (§8) Other commercial kits or systems for assaying PI3K activities are available. […] An exemplary system is PI 3-Kinase (human) HTRF™ Assay from Upstate.

B cell = B cell proliferation EC50 (Table 3); format: cell-based
PI3K γ = PI3K γ (Homo sapiens, UniProt P48736); assay: In vitro IC50, PI3K γ (Table 3); format: biochemical; set-up: purchased Sigma
Chain of PI3K γ (P48736 whole entry): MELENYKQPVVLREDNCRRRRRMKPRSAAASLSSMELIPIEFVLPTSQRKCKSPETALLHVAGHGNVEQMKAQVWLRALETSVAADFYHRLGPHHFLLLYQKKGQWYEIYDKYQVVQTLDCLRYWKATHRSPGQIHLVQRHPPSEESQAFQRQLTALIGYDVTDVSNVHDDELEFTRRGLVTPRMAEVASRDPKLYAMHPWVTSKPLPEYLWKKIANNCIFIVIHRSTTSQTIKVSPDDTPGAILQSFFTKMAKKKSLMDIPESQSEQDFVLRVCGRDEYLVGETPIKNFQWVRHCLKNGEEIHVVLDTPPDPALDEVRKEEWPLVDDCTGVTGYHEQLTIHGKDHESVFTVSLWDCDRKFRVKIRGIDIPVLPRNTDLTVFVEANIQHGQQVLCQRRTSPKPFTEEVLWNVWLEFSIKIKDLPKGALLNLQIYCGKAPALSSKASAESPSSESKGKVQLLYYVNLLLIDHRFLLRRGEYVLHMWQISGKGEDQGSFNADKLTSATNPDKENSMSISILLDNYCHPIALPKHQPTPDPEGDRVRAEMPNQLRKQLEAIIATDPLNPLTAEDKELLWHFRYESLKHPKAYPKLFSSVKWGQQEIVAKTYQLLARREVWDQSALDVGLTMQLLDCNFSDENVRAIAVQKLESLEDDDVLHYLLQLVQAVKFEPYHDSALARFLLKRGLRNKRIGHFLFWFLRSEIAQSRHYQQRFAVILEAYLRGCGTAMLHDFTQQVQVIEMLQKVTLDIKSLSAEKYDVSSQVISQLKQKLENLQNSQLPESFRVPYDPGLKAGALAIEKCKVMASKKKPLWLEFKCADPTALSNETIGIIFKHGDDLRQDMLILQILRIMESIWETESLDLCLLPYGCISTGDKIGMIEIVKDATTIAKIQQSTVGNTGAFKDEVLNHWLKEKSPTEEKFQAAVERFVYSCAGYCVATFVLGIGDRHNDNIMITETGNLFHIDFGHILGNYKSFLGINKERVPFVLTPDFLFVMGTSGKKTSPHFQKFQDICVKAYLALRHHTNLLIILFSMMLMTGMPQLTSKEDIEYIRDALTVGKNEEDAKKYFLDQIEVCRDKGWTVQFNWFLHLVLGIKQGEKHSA
Source text: as §8

PI3K α = target: T1, PI3K α (Homo sapiens, UniProt P42336); assay: In vitro IC50, PI3K α (Table 3); format: biochemical
T1 construct: purchased Upstate
T1 sequence (P42336 whole entry): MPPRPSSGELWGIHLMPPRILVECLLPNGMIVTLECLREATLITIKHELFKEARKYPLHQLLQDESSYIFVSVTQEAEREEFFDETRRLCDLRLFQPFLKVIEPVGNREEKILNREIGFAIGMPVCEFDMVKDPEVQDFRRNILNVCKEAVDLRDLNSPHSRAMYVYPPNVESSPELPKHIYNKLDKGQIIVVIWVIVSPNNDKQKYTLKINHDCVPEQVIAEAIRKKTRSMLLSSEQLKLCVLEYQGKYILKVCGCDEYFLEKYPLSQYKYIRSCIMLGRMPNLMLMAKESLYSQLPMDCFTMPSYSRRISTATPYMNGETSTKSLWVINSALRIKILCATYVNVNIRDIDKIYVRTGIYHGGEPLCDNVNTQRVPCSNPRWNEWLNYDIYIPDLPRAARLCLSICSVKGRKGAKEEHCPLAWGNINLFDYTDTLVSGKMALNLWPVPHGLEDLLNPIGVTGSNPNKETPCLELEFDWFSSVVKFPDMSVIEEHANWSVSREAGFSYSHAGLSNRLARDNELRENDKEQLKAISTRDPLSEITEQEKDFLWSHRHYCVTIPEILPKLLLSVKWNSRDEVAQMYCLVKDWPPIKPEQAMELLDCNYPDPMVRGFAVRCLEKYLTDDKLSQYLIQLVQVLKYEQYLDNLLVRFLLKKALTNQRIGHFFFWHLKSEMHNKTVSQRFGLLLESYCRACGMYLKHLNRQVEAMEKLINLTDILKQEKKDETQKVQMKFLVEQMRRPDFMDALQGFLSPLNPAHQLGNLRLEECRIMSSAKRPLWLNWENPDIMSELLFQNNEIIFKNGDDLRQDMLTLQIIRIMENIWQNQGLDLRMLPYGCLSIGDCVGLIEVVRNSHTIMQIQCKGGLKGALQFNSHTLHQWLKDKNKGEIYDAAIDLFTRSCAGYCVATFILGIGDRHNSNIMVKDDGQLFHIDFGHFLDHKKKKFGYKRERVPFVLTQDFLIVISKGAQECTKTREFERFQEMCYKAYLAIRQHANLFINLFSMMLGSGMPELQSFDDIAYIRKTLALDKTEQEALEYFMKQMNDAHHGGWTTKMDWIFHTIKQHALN
T1 sequence (P27986 whole entry partner): as the sequence (P27986 whole entry partner) above
Source text: as §8

PI3K β = target: T2, PI3K β (Homo sapiens, UniProt P42338); assay: In vitro IC50, PI3K β (Table 3); format: biochemical
T2 construct: purchased Upstate
T2 sequence (P42338 whole entry): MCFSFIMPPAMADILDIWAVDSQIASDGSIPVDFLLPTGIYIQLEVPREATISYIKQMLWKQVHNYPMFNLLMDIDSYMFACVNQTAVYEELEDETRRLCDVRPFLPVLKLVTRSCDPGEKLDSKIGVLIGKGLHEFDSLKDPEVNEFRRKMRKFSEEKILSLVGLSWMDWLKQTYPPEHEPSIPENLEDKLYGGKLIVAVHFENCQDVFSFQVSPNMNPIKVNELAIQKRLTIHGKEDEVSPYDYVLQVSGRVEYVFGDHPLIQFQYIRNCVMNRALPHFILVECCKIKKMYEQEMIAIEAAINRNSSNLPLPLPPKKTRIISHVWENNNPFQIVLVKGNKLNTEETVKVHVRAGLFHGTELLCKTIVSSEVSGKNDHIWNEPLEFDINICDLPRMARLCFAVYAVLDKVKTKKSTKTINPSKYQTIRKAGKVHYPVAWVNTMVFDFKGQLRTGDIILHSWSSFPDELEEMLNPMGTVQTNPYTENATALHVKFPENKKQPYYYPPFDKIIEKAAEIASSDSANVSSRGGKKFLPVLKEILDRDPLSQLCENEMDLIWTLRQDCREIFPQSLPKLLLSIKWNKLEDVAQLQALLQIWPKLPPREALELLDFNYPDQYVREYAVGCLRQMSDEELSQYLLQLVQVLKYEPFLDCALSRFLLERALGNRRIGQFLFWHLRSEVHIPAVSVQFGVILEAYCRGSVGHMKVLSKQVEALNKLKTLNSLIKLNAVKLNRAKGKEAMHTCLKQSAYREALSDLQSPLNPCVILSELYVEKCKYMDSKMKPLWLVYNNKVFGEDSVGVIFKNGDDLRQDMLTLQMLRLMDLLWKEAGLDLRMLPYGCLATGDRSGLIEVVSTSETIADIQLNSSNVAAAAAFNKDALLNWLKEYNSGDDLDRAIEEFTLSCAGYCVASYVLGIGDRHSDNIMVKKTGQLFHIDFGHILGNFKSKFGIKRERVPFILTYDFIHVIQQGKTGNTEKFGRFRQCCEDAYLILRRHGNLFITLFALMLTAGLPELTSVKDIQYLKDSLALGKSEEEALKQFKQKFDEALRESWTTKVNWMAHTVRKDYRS
T2 sequence (P27986 whole entry partner): as the sequence (P27986 whole entry partner) above
Source text: as §8

RL = assay: combination screen with BTK inhibitors, 72 hours ATPLite; format: cell-based; settings: RL (follicular lymphoma); combination with Compound 292
Protocol: as §1, §2, §3, §4, §5, §6

Compound: C=CC(=O)Nc1cccc(Nc2nc(Nc3ccc(OCCOC)cc3)ncc2F)c1 [AVL-292, N-(3-((5-fluoro-2-((4-(2-methoxyethoxy)phenyl)amino)pyrimidin-4-yl)amino)phenyl)acrylamide]
- CI50 (growth inhibition) (RPMI-8226): U (U=0.7 to <1)
- CI50 (inhibition) (RPMI-8226): W (W=≧1)
- CI50 (inhibition) (HH): U (U=0.7 to <1)
- CI50 (growth inhibition) (KARPAS-422): U (U=0.7 to <1)
- CI50 (growth inhibition) (Jeko-1): U (U=0.7 to <1)
- CI50 (inhibition) (Jeko-1): U (U=0.7 to <1)
- CI50 (inhibition) (OPM-2): U (U=0.7 to <1)
- CI50 (growth inhibition) (NCI-H929): U (U=0.7 to <1)
- CI50 (inhibition) (NCI-H929): U (U=0.7 to <1)
- CI50 (growth inhibition) (GRANTA-519): W (W=≧1)
- CI50 (inhibition) (U-2932): W (W=≧1)
- CI50 (growth inhibition) (KARPAS-299): U (U=0.7 to <1)
- CI50 (inhibition) (HBL-1): W (W=≧1)
- CI50 (growth inhibition) (OCI-Ly7): W (W=≧1)
- CI50 (growth inhibition) (OCI-LY3): U (U=0.7 to <1)

Compound: Cc1ccccc1-n1c(Cn2nc(I)c3c(N)ncnc32)cc2cccc(C)c2c1=O [Compound 31]
- IC50 (PI3K δ): < 1 µM

Compound: N#Cc1nn(Cc2cc3ccccc3c(=O)n2-c2ccccc2F)c2ncnc(N)c12 [Compound 169]
- EC50 (B cell): < 1 µM
- IC50 (PI3K δ): < 0.1 µM
- IC50 (PI3K γ): > 10 µM
- IC50 (PI3K α): > 10 µM
- IC50 (PI3K β): > 10 µM

Compound: Cc1cccc2cc(C(C)n3nc(-c4cn[nH]c4)c4c(N)ncnc43)n(C3CCN(C)CC3)c(=O)c12 (stereo not shown) [Compound 226]
- IC50 (PI3K δ): < 1 µM

Compound: Cc1cccc2cc(C(C)Nc3ncnc4[nH]cnc34)n(C3CCN(C)CC3)c(=O)c12 (stereo not shown) [Compound 228]
- IC50 (PI3K δ): < 1 µM
- IC50 (PI3K β): < 10 µM

Compound: C=CC(=O)N1CCC[C@@H](n2nc(-c3ccc(Oc4ccccc4)cc3)c3c(N)ncnc32)C1 [ibrutinib]
- CI50 (growth inhibition) (RL): U (U=0.7 to <1)
- CI50 (inhibition) (RL): W (W=≧1)
- CI50 (growth inhibition) (NCI-H929): U (U=0.7 to <1)

Further lines, results first:

- IC50 (PI3K γ): < 1 µM
- IC50 (PI3K α): > 10 µM
- IC50 (PI3K β): > 10 µM
Compound: Cc1cccc2cc([C@H](C)Nc3ncnc4[nH]cnc34)n(-c3ccccc3)c(=O)c12 [Compound 238]

- IC50 (PI3K δ): < 1 µM
- IC50 (PI3K γ): < 1 µM
- IC50 (PI3K β): < 10 µM
Compound: CC(=O)Nc1nc2cc(-c3nn(Cc4cc5cccc(C)c5c(=O)n4-c4ccccc4)c4ncnc(N)c34)ccc2o1 [Compound 269]

- IC50 (PI3K δ): > 10 µM
- IC50 (PI3K γ): > 10 µM
- IC50 (PI3K α): > 10 µM
- IC50 (PI3K β): > 10 µM
Compound: Cc1cccc2cc([C@H](C)Nc3ncnc4[nH]c(Cl)cc34)n(C3CC3)c(=O)c12 [Compound 280]
